Our source for the melting point values is a melting point compilation (Tetko et al.; mined from patent text by program, amines drawn as free bases though some values may be those of a salt).

For orientation: melting point means the temperature of the solid-liquid transition.

In the case of `O=C(O)C(CC1CCCC1)c1ccc(-c2ccncc2)cc1` (stereo unspecified), the melting point was in the range of 118 to 121 °C. For `COc1cc(N2CCC(Br)C2=O)ccc1Cl` (stereo unspecified), the melting point lay within 113 to 115 °C. `Cc1ccc([C@@H](O)[C@@H]2[C@@H](C)CCCC2(C)C)cc1` returned a melting point of 78 to 79 °C. The result for `O=C(Cc1c(C(=O)c2ccccc2)[nH]c2cc(Cl)ccc12)NCCO` reads 178 to 180 °C; that for `c1ccc2c(c1)nc1n2CCCC1`, 104 to 106 °C; that for `CN(C)c1ccccc1Sc1nc2ccccc2[nH]1`, 148 to 149 °C. `CC(=O)N1CCC(Oc2ccc(N3CCCC3)cc2)CC1`: the melting point fell in the range of 69 to 70 °C. Under `O=C1c2ccccc2C(=O)c2oc(-c3ccccc3Cl)nc21` stands 216 °C; under `COc1ccc([C@@H]2Sc3cc(Cl)ccc3N(CCCN3CCN(c4ccccc4)CC3)C(=O)[C@@H]2O)cc1` (relative stereo), 70 to 71 °C; under `Cc1cc2c(cc1O)OC[C@@H](N1CCC(O)(c3ccc(F)cc3)CC1)[C@H]2O` (relative stereo), 174 °C. Under `O=C(c1ccc(Cl)cc1)c1ccc2[nH]c(=O)cc(C(=O)O)c2c1` stands > 260 °C; under `COc1ccc2c(c1)C(=O)N(c1cnc3c(ccn3C)c1)C2`, 198 to 199 °C; under `COC(=O)Nc1nc2cc(SCC3CCCCC3)ccc2[nH]1`, 200 to 204 °C. `O=C(NCCCl)NOCc1ccccc1` registered a melting point of 67 to 68 °C. The result for `COc1cc2c(cc1OC)C(C#N)N(C(=O)c1ccccc1)C=C2` (stereo unspecified) reads 155 to 157 °C; that for `Cn1c(Oc2cccc(C(F)(F)F)c2)nc2c(-c3cccc(C(=O)NCC(N)=O)c3)cccc21`, 185 to 186 °C.

`CCC(=NNC(=O)C1CC1C)c1cccnc1` (stereo unspecified) registered a melting point of 137 °C. The result for `O=C(NN1CCNC1=O)c1c[nH]c2cc(O)c(O)cc2c1=O` reads > 300 °C; that for `COc1ccc(-n2nc(OCC(F)(F)F)nc2-c2ccc(OC)nc2)cc1`, 82 to 83 °C. The result for `CCc1cccc(CC)c1NC(=O)c1c2n(c(C)c(Br)c1=O)CCCC2` reads 208 to 210 °C.

`CC(C)n1c(C=O)c(-c2ccc(F)cc2)c(-c2ccccc2)c1C(N)=O` yielded a melting point of 187 to 188 °C. The compound `NC(=O)CNC(=O)c1cccc(-c2c(F)ccc3cc(Cc4cccc(C(F)(F)F)c4)sc23)c1` gave a melting point of 130 to 131 °C. The result for `N#Cc1ccc(F)c(C2=Nc3ccc(-c4ccccc4F)cc3NC(=O)C2)c1` reads 239 °C; that for `Cc1cccc(Sc2ccc3c(c2)CC[C@H]2NC(=O)CC[C@]32C)c1`, 189 to 191 °C; that for `CCOCc1nc2c(N)nc3cc(-c4cccnc4)cnc3c2n1CC(C)C`, 177 to 179 °C. The result for `CC(NS(=O)(=O)c1cc(C(=O)CCl)ccc1Cl)c1ccccc1` (stereo unspecified) reads 127 °C; that for `CCCN(CCC)C(=O)Cn1c(-c2ccc(C(F)(F)F)cc2)nc2cccnc21`, 138 to 139 °C. Turning to `CCN1c2ncc(CCc3ccnc(O)c3)cc2C(=O)N(C)c2ccc(Cl)nc21`, the melting point was 243 to 244 °C.

Turning to `C=CCN(C)S(=O)(=O)CC(=O)C=C(C)N`, the melting point fell in the range of 86 to 89 °C. The result for `N#CCCCCCc1nc(-c2ccc(Cl)cc2)c(-c2ccc(Cl)cc2)o1` reads 108 °C; that for `COC(=O)CCCC(=O)Nc1ccc(-c2ccc(C#N)cc2)cc1`, 171 to 173 °C; that for `CC(C)(C)OC(=O)N=C(N)N(CCc1ccc(OCCC2Oc3ccccc3N(Cc3cccc(Cl)c3)C2=O)cc1)C(=O)OC(C)(C)C` (stereo unspecified), 74 to 78 °C.

For the compound `COCCCOc1cc(N(C)S(=O)(=O)c2ccccn2)c2[nH]c(C3=NCC(CN4CCS(=O)CC4)S3)cc2c1` (stereo unspecified), the melting point fell in the range of 176 to 177 °C. The result for `CCc1cc(CC)n2ncc(Br)c2n1` reads 64 to 65 °C. The result for `Cc1[nH]c(Cc2ccccc2)nc1CO` reads 134 to 138 °C. `COc1cc2c(CC#N)c(Br)[nH]c2cc1Br` registered a melting point of 169 to 171 °C. `COC(=O)c1ccc(OCCCN2CCC(C(O)(c3ccc(F)cc3)c3ccc(F)cc3)CC2)c(OC)c1` gave a melting point of 131 to 132 °C. Under `c1cc2c3c(ccc2[nH]1)NCC3` stands 183 to 186 °C.

`CC(C)c1ccccc1SCc1cn(-c2ccc(S(C)(=O)=O)cc2)c(-c2ccc(Cl)cc2)n1`: the melting point lay in the range of 68 to 70 °C. The result for `O=C(O)C=C[C@H](Cc1ccc(-c2ccccc2)cc1)NCP(=O)(O)O` reads 231 to 233 °C; that for `CCCN(CCC)Cc1ccccc1P(=NC(=O)OCC)(c1ccccc1)c1ccccc1`, 102 to 104 °C; that for `C=CCN1C(=O)c2cccc(C)c2Oc2ncccc21`, 58 to 60 °C.

The compound `CC(C(=O)O)c1c(Sc2ccccc2)c2cc(F)ccc2n1Cc1ccc(Cl)cc1` (stereo unspecified) displayed a melting point of 80 to 82 °C.

In the case of `C1=CC2=NCCN2C=C1`, the melting point was in the range of 178 to 180 °C. The result for `Cc1cc(NC(=O)C(=O)N(C)Cc2ccccc2)cc(C)c1S(=O)(=O)C[N+](=O)[O-]` reads 99 to 101 °C; that for `Cc1cccc2nc(C)n(C3CCC(=O)NC3=O)c(=O)c12` (stereo unspecified), 292 to 294 °C. Under `CC(C)(C)OC(=O)Nc1ccc(C#Cc2ccccc2F)cc1N` stands 137 to 139 °C; under `N#Cc1ccc(OC[C@H]2C[C@@H](O)CN2c2ccc(C#N)c3ccccc23)c2ccccc12`, 123 to 126 °C.

As for `c1ccc2cc(OCCCCCCCCOc3ccc4ccccc4c3)ccc2c1`, the melting point was 125 to 126 °C. In the case of `CC(=O)Oc1ccc(C(=O)NNC(=O)c2occ(-c3ccccc3)c2-c2ccccc2)cc1C#N`, the melting point was in the range of 131 to 133 °C.

Compound `O=C(NCC(=O)N1c2ccccc2N(Cc2ccccc2)C(=O)[C@H]2CCC[C@H]21)c1cccs1` (relative stereo) returned a melting point of 223 °C. Under `Cc1ccccc1-n1c(-c2sc(NC(=O)c3ccccc3)nc2-c2ccccc2)nc2ccccc2c1=O` stands > 275 °C; under `CCOC(=O)c1c(CN2CCOCC2)nc2cc3c(cc2c1-c1ccc(OC)c(OC)c1)OCCO3`, 174 to 175 °C; under `CCOC(=O)c1c[nH]c(Br)c1-c1cccc(F)c1`, 114 to 117 °C. Under `C=C(c1ccc(-c2ncnn2COCC)cc1)C(O)(Cn1cncn1)c1ccc(F)cc1F` (stereo unspecified) stands 160 to 162 °C; under `CCc1nc2c(N)nc3ccc(OCc4ccccc4)cc3c2n1CCCCNC(=O)N1CCOCC1`, 190 to 191 °C. The result for `O=S(=O)(Nc1onc(C(F)(F)F)c1Br)c1ccccc1` reads 104 to 105 °C. `CCC1(CCCCCBr)C(=O)Nc2ccc(F)cc21` (stereo unspecified) displayed a melting point of 82 to 83 °C. Under `Cc1cc(C)nc(NCSC(=S)N2CCOCC2)n1` stands 119 to 121 °C. Under `CCC(CC)c1nn(-c2ccc(Cl)cn2)cc1CCCOc1c(CC(=O)O)cccc1OC` stands 85 to 86 °C; under `CN(C)c1ccc(O)c(CNCCc2ccc(N=C(N)c3cccs3)cc2)c1`, 182 to 183 °C.
